The source made the active and inactive calls.
How the values were obtained:
Escherichia coli = assay: microbe, parasite or virus in culture
[1] = growth suppression of PTEN-null colon cells, dose response, cell-based, HCT116 PTEN knockout (AID 1047); assay type: functional;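 further: HCT116 colon tumor cells with PTEN knocked out; cells exposed to compound for 60 hours before readout; potency for loss of cell viability measured by luminescence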
[2] = biological target: T1, Fructose-bisphosphate aldolase (Mycobacterium tuberculosis, UniProt P9WQA3); assay: Fluorescence-based biochemical high throughput dose response assay for inhibitors of the fructose-bisphosphate aldolase (FBA) of M. tuberculosis.; assay type: functional
T1 sequence (P9WQA3 whole entry): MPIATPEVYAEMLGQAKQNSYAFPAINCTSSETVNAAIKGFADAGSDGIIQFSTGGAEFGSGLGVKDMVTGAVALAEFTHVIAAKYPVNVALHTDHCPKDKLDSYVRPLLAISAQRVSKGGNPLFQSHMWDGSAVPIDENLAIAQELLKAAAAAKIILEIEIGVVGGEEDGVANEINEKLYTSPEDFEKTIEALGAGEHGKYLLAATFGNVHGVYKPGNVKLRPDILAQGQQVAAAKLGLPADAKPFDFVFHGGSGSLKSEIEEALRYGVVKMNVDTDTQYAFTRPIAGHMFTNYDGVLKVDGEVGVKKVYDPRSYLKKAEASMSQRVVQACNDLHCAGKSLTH

[3] = growth suppression of beta-catenin-knockout colon cells, dose response, cell-based, HCT116, human colon tumor (AID 1045); assay type: functional;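 further: HCT116 colon tumor cells with beta catenin knocked out; cells exposed to compound for 60 hours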
cells [4] = assay type: functional, cell-based
cells [5] = assay type: functional, cell-based; remark: listed apart in the source
[6] = biological target: Intestinal-type alkaline phosphatase (Mus musculus, UniProt P24822); assay: PubChem AID 488785; assay type: functional
[7] = biological target: Intestinal-type alkaline phosphatase (Homo sapiens, UniProt P09923); assay: inhibition of human intestinal alkaline phosphatase – biochemical, dose response (AID 488876); assay type: functional
[8] = biological target: T2, Alkaline phosphatase, tissue-nonspecific isozyme (Homo sapiens, UniProt P05186); assay: TNAP enzyme inhibition by screening hits, dose response, selectivity assay for mouse IAP inhibitor project, biochemical, human TNAP, uHTS hits (AID 488906); assay type: functional
T2 sequence (P05186 whole entry): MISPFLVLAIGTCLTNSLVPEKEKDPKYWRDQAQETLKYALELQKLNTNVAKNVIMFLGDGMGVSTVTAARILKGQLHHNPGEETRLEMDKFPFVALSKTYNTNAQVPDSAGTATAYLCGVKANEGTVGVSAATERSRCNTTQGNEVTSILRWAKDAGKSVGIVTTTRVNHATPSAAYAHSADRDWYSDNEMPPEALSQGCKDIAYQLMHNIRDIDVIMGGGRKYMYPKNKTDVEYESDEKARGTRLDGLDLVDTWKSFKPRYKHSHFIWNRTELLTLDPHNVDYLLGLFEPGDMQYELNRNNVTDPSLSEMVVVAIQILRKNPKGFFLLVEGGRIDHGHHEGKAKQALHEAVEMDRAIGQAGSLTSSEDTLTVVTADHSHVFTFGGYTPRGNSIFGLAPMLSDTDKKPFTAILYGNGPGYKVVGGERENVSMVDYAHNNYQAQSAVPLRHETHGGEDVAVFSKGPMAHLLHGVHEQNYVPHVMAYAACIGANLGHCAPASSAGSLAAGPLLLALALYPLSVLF

[9] = ADAM10 inhibitors, peptide cleavage, dose response, biochemical, QFRET (AID 743254);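 further: ADAM10 enzyme with the DM2 quenched FRET peptide as substrate; EDANS fluorescence gain as the protease cuts the substrate; inhibitor potency against ADAM10 proteolytic activity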
[10] = biological target: Disintegrin and metalloproteinase domain-containing protein 17 (Homo sapiens, UniProt P78536); assay: ADAM17 protease inhibitors, dose response, counter-screen for ADAM10 exosite inhibitor project, biochemical, quenched FRET substrate (AID 743253)
[11] = biological target: T3, Small ubiquitin-related modifier 1 (Homo sapiens, UniProt P63165); assay: inhibitors of SUMO1 partner interactions, dose response, biochemical, FRET (AID 624383); assay type: functional; conditions: read-out: IC50_Mean
[12] = biological target: T3, Small ubiquitin-related modifier 1; assay: inhibitors of SUMO1 peptide binding, dose response, biochemical, fluorescence polarization, uHTS hits (AID 624382); assay type: functional; conditions: read-out: IC50_Mean
[13] = biological target: T2, Alkaline phosphatase, tissue-nonspecific isozyme; assay: human TNAP enzyme inhibitors, SAR follow-up, biochemical, luminescent, dose response (AID 1056)
[14] = biological target: Glyceraldehyde-3-phosphate dehydrogenase (Homo sapiens, UniProt P04406)
[15] = biological target: T4, Sentrin-specific protease 8 (Homo sapiens, UniProt Q96LD8); assay type: functional
T4 sequence (Q96LD8 whole entry): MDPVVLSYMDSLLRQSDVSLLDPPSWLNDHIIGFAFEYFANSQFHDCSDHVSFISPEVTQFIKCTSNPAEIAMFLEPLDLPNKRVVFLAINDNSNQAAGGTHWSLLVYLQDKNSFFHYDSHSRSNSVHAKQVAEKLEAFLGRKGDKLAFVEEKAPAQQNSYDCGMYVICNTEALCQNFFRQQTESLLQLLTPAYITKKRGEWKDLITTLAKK

[16] = biological target: T4, Sentrin-specific protease 8; assay type: functional; remark: listed apart in the source
[17] = Luminescence Cell-Based Dose Retest to Confirm Inhibitors of Cancer Stem Cells. [Related pubchem assays (depositor defined):AID2717, AID2721]; assay type: functional; conditions: Homo sapiens
cells [18] = assay: cells
Caspase-3 = biological target: T5, Caspase-3 (Homo sapiens, UniProt P42574); assay: SAR Analysis of small molecule inhibitors of Sentrin-specific proteases (SENPs) using a Caspase-3 Selectivity assay. [Related pubchem assays (depositor defined):AID2540, AID2599, AID434973, AID489001]; assay type: functional
T5 sequence (P42574 whole entry): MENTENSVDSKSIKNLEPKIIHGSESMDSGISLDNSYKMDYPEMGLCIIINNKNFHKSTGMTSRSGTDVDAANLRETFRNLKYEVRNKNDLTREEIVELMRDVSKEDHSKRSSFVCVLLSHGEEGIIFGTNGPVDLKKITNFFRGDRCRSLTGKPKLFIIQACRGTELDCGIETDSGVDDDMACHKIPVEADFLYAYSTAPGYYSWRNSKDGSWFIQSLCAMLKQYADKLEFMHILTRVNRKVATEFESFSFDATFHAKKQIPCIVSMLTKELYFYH

[19] = biological target: T6, Sentrin-specific protease 6 (Homo sapiens, UniProt Q9GZR1); assay: SAR Analysis of small molecule inhibitors of Sentrin-specific protease 6 (SENP6) using a Luminescent assay. [Related pubchem assays (depositor defined):AID2582, AID2599]; assay type: functional
T6 sequence (Q9GZR1 whole entry): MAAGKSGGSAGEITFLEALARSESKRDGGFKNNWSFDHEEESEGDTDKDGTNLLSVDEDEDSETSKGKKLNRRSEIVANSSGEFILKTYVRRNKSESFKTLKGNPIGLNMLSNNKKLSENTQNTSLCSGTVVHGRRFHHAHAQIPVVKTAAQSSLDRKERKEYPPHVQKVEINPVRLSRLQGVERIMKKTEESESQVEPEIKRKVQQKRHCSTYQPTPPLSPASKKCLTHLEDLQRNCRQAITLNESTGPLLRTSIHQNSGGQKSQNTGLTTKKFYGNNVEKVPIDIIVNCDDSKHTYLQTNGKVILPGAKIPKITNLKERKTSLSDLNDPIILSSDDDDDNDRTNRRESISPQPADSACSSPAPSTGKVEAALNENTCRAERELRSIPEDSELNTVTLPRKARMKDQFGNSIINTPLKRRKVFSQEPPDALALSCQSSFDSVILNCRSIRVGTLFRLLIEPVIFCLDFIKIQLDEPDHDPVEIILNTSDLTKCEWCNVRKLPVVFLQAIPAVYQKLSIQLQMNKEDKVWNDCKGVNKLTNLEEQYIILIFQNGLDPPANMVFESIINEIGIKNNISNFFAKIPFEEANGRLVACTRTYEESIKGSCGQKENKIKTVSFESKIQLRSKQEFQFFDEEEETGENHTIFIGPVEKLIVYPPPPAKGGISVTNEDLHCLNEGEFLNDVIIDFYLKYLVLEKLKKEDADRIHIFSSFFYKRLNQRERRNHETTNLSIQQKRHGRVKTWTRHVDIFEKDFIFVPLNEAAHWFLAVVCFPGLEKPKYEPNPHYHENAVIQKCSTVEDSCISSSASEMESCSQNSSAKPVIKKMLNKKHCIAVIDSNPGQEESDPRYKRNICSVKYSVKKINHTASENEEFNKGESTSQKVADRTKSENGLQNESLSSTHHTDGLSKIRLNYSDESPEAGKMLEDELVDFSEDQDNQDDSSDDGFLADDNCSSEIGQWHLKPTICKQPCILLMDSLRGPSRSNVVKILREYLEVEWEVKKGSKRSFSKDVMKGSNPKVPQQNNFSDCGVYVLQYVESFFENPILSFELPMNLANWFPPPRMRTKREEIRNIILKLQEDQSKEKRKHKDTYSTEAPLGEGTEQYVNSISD

[20] = biological target: T4, Sentrin-specific protease 8; assay: SENP8 protease inhibitors, SAR follow-up, biochemical, luminescence (AID 504501); assay type: functional
[21] = biological target: T7, Low molecular weight phosphotyrosine protein phosphatase (Homo sapiens, UniProt P24666); assay type: functional; conditions: read-out: IC50_Mean;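 further: Dose-response confirmation assay measuring inhibition of LMPTP enzyme activity by fluorescence intensity read-out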
T7 sequence (P24666 whole entry): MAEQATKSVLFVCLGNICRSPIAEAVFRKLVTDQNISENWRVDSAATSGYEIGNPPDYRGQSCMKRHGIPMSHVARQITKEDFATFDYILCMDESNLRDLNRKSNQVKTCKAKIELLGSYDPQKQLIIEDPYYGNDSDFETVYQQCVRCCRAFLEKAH

Paired box protein Pax-8 = Paired box protein Pax-8 (Homo sapiens, UniProt Q06710); assay: inhibitors of PAX8-driven TPO luciferase reporter, dose response, RMG-I cells, cherry-pick (AID 687027); assay type: functional, cell-based;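 further: luciferase reporter driven by Pax8 target thyroperoxidase promoter measured by SteadyGlo luminescence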
[22] = non-specific cell cytotoxicity, dose response, cytotoxicity control for PAX8 inhibitor project, plate reader, dry powder samples (AID 743021); assay type: functional, cell-based
[23] = biological target: T8, Nuclear receptor subfamily 0 group B member 1 (Homo sapiens, UniProt P51843); assay type: functional, cell-based;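 further: HEK293T cells transfected with SF-1 and DAX-1 plus StAR promoter luciferase reporter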
T8 sequence (P51843 whole entry): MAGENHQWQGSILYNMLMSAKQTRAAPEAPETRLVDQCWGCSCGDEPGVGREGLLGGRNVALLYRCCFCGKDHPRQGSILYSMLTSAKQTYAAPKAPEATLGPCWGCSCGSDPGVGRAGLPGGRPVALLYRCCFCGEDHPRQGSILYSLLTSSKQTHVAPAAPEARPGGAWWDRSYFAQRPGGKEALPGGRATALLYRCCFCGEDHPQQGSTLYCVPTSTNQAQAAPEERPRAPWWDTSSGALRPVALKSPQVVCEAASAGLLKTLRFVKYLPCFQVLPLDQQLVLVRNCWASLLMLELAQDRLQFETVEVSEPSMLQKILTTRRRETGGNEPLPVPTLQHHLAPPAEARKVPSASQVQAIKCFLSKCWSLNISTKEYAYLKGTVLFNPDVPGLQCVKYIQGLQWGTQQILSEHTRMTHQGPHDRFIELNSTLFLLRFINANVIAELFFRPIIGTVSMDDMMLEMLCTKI

cells [24] = assay type: functional, cell-based; remark: listed apart in the source
H4 = assay: Luminescence Cell-Based Dose Response HTS to Identify Activators of 5'UTR Stem-Loop Driven Prion Protein mRNA Translation in H4 Neuroglioblastoma Cells. [Related pubchem assays: 1829 (Project Summary), 1814 (Primary HTS)]; assay type: functional; conditions: Homo sapiens

T3 sequence (P63165 whole entry): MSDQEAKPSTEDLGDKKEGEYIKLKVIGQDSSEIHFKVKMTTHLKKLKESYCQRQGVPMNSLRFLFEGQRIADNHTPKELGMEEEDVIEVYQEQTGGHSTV
Disintegrin and metalloproteinase domain-containing protein 17, sequence (P78536 whole entry, the tested form may be a part): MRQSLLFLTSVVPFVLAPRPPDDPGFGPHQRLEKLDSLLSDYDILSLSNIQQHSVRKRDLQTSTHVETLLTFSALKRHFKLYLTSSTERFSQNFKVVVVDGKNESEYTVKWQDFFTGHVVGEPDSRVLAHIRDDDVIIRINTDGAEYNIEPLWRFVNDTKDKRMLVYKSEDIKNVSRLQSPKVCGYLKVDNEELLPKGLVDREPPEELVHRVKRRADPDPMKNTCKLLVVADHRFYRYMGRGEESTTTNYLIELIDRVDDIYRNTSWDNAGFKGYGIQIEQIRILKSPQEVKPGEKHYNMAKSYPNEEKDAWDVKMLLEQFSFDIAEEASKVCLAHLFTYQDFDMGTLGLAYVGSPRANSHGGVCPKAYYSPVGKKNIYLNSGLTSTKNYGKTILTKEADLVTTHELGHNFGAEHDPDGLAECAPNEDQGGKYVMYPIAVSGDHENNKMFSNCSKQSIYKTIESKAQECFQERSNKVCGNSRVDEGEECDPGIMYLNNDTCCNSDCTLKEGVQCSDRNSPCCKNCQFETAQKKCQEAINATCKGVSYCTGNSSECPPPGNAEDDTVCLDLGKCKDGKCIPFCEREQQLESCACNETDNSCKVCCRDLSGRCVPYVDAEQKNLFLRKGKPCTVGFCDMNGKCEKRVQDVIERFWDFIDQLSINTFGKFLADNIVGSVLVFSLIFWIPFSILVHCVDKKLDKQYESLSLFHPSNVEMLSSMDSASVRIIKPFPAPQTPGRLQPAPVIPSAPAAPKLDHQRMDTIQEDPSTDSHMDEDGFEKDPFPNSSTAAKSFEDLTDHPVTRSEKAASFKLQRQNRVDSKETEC
Intestinal-type alkaline phosphatase (Homo sapiens, UniProt P09923), sequence (P09923 whole entry): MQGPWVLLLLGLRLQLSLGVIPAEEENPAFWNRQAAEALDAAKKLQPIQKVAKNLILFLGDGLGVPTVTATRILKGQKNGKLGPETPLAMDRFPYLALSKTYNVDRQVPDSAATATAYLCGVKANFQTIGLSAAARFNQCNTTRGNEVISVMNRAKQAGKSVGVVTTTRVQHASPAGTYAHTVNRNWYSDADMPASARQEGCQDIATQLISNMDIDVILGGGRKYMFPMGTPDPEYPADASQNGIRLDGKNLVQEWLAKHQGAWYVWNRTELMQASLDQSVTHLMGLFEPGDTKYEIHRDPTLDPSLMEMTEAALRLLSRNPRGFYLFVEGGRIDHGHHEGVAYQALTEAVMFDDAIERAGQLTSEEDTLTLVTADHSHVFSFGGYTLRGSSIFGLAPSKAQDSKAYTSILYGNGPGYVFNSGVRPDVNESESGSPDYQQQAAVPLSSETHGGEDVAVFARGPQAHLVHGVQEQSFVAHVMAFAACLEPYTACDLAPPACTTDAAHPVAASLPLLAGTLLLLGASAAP
Intestinal-type alkaline phosphatase (Mus musculus, UniProt P24822), sequence (P24822 whole entry): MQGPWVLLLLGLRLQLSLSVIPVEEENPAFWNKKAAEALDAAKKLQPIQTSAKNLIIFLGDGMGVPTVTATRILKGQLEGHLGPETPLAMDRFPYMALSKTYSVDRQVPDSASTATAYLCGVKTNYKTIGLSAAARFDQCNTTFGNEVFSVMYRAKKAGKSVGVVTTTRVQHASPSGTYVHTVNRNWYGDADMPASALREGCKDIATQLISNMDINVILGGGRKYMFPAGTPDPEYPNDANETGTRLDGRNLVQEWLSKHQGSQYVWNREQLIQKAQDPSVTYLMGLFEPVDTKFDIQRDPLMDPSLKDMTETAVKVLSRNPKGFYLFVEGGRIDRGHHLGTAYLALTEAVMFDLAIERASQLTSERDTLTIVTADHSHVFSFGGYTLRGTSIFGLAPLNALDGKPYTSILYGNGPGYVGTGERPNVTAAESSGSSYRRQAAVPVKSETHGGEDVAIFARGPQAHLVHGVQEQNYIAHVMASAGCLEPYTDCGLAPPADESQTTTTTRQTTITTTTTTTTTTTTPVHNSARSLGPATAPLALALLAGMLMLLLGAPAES
Glyceraldehyde-3-phosphate dehydrogenase, sequence (P04406 whole entry): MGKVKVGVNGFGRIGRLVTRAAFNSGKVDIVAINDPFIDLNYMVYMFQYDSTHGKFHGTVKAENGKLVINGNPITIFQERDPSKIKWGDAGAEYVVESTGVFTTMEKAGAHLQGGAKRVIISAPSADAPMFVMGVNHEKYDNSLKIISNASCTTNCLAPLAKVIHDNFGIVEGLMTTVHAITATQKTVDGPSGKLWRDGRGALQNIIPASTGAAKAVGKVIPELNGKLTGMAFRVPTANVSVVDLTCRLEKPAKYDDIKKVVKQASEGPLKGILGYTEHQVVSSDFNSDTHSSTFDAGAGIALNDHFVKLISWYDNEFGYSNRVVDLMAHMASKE
Paired box protein Pax-8, sequence (Q06710 whole entry): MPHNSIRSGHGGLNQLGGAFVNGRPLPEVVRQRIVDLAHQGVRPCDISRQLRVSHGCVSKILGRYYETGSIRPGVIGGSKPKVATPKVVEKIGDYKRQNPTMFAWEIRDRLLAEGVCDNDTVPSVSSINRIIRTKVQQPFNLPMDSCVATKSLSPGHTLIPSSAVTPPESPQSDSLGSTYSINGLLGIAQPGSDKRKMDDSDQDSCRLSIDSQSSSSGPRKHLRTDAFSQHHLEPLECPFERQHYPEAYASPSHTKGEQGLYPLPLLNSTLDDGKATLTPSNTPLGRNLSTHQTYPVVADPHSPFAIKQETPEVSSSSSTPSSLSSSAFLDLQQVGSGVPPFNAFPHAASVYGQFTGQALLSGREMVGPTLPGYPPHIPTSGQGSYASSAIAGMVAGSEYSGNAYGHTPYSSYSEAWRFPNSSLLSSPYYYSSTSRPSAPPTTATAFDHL

CCc1cc(Cl)c(OC)c(C(=O)NC[C@@H]2CCCN2CC)c1O
AC50 (Escherichia coli): 19.4 µM (active)

CCOC(=O)c1oc2cccc(OCC(O)CNC(C)C)c2c1C (stereo unspecified)
EC50 [1]: 45.6 µM (active) | IC50 [2]: 0.843 µM (active) | EC50 [3]: 47.7 µM (active)

Cc1ccc(-c2nc3ccccc3nc2NN)cc1
EC50 (cells [4]): > 350 µM (not active) | IC50 [2]: > 10 µM (inactive) | EC50 (cells [5]): 7.52 µM (active)

O=C(NC1CCCCC1)Oc1cc2oc(=O)sc2cc1Cl
IC50 [6]: 3.78 µM (active) | IC50 [7]: 3.54 µM (active) | IC50 [8]: 11.8 µM (active)

COc1ccc(/C=C(/NC(=O)c2cccc([N+](=O)[O-])c2)C(=O)O)cc1OC
AC50 (Escherichia coli): 18.5 µM (active)

COc1ccc(-c2c[nH]nc2-c2ccc(OCc3ccccc3)cc2O)cc1OC
IC50 [9]: > 69.5 µM (inactive) | IC50 [10]: > 69.5 µM (inactive)

O=C(Nc1ccc2c(c1)C(=O)NC2=O)c1ccc2ncsc2c1
IC50 [11]: 8.45 µM (active) | IC50 [12]: > 66.6 µM (inactive)

COc1ccc(-c2nnc3oc(O)cc(C)c2-3)cc1
IC50 [13]: 1.06 µM (active) | IC50 [2]: 1.88 µM (active) | IC50 [14]: > 100 µM (not active)

COc1c(F)c(F)cc2c(=O)c(C(=O)O)cn(C3CC3)c12
AC50 (Escherichia coli): 3.88 µM (active)

CCOC(=O)c1ccc(N2C(=O)Cc3ccccc3C2=O)cc1
IC50 [15]: 12 µM (active) | IC50 [16]: > 100 µM (inactive)

Cc1cccc(OCCNC(=O)c2cccc(Oc3ccc(C(F)(F)F)cc3[N+](=O)[O-])c2)c1
IC50 [9]: 27.5 µM (inactive) | AC50 [17]: 23.5 µM (active) | IC50 [10]: > 69.5 µM (inactive)

CC(=O)c1ccc(-n2nnnc2SCC(=O)N2CCc3ccccc3C2)cc1
IC50 [15]: 8.03 µM (active) | IC50 [16]: 10.2 µM (active)

CC(=O)CSc1nc(O)c(C#N)c(-c2cccs2)n1
IC50 (cells [18]): > 138 µM (inactive)

COC(=O)c1ccc(NC(=O)c2ccc3c(c2)OCO3)cc1
IC50 (Caspase-3): 3.7 µM (active) | IC50 [19]: > 99 µM (inactive) | IC50 [20]: > 99 µM (inactive)

Cc1cc(N2CCN(C(C(=O)NC3CCCC3)c3ccc(-c4ccccc4)cc3)CC2)c2ccccc2n1 (stereo unspecified)
IC50 [21]: 6.49 µM (active)

Cc1ccc(S(=O)(=O)Nc2ccc3c(c2)CC(=O)N([C@@H](C)CO)C[C@H](C)[C@@H](CN(C)C(=O)Nc2ccc(C(F)(F)F)cc2)O3)cc1
AC50 (Paired box protein Pax-8): 30.4 µM (active) | AC50 [22]: 43.1 µM (active)

O=C(/N=c1\nc2ccccn2s1)c1ccccc1
IC50 [23]: > 67.5 µM (inactive) | IC50 (cells [24]): > 67.5 µM (inactive) | EC50 (H4): 5.73 µM (active)

Reference: ChEMBL document CHEMBL1201862, “PubChem BioAssay data set” (2004)
